The values that follow are results of earlier work, collected in patent US12544334B2, “Metabolisable pH sensitive polymersomes” (UCL BUSINESS LTD, priority 2018, dated 2026).

For orientation: pKa means the negative logarithm of the acid dissociation constant.

The structures appear in SMILES notation.

For the series the following is noted: imidazole-bearing acid before conjugation to the cysteine N-terminus.

As for `O=C(O)Cn1ccnc1` [1H-imidazole-1-acetic acid], the pKa is given as 6.8. Consider `O=C(O)Cc1c[nH]cn1` [4-imidazolacetic acid], for which the pKa is recorded as 6.6.
